Assay results: patent US20060100264A1, “3,3'-Diindolylmethane immune activating compositions” (priority 2004, published 2006)

Assays:
IL-6 = test: Serum IL-6 by ELISA in mice after DIM; type: in vivo; conditions: 30 μg/kg DIM orally
Method: (§1) We firstly investigated the effect of unsubstituted DIM on the production of IL-6, G-CSF, IL-12, TNF-α and IFNγ. A groups of 3 mice was given 30 μg/kg of unsubstituted DIM orally and then sacrificed at 1, 3, 5, 8, and 24 h after drug challenge. Serum was collected, pooled, and assayed for IL-6, G-CSF, IL-12 and TNF-α by ELISA. […] DIM produced an increase in circulating levels of G-CSF and TNF-α with the 3 h time point being maximal. […] DIM also stimulated IL-12 and kinetics were slightly different since the increased levels were sustained for at least 24 h.

GAS element = test: Electrophoretic gel mobility shift assay, STAT1 binding to GAS element; type: cell-based, human; conditions: DIM pretreatment for various times, IFNγ 30 min
Method: An electrophoretic gel mobility shift assay was used to verify that the phosphorylated STAT1 was effectively activated to a dimer that could bind to the GAS element. The ^32P-labeled DNA probe containing a GAS sequence was incubated with nuclear extracts from cells pretreated with DIM for various times as indicated, and with IFNγ for 30 min. […] When samples were incubated with an antibody specific to STAT1, the band was super-shifted, confirming the identity of the protein binding to the labeled GAS probe.

IL-12 = test: Serum IL-12 by ELISA in mice after DIM; type: in vivo; conditions: 30 μg/kg DIM orally
Method: as §1

MHC-II = MHC-II expression in MCF-7 cells; type: cell-based, human
Source text: In an analogous further experiment, we observed no effect of DIM or IFNγ on MHC-II expression in the MCF-7 cells.

G-CSF = test: Serum G-CSF by ELISA in mice after DIM; type: in vivo; conditions: 30 μg/kg DIM orally
Method: as §1

[1] = tested on: Y. enterocolitica WA-314 serotype O:8; test: Y. enterocolitica infection of BALB/c mice, spleen bacterial numbers; type: in vivo
Method: Female, 6- to 8-week-old BALB/c mice are purchased from Charles River and kept under specific-pathogen-free conditions (positive-pressure cabinet).
Mice are given 30 μg/kg/day of a DIM or one of 24 substituted DIM compounds (Table 1, supra) orally, starting at 1 day prior to infection.
Freshly thawed, plasmid-harboring Y. enterocolitica WA-314 serotype O:8 organisms suspended in 0.1 ml of sterile phosphate-buffered saline (PBS), pH 7.4, are used for intravenous and oral infection as described previously (Autenrieth, et al. 1994. Infect. Immun. 62:2590-2599). The actual number of bacteria administered is determined by plating serial dilutions of the inoculum on Mueller-Hinton agar and counting CFU after an incubation period of 36 h at 26C. For kinetic studies, five mice per group are killed by carbon dioxide asphyxiation on days 1, 3, and 7 postinfection (p.i.) with 5×10^3 bacteria. Spleens are aseptically removed, and single-cell suspensions prepared by using 5 ml of PBS containing 0.1% bovine serum albumin. Duplicates of 0.1 ml of serial dilutions of these preparations are plated on Mueller-Hinton agar. The limit of detectable CFU is 25 (log1025=1.4).
In single end-point studies, bacterial numbers in spleens of treated BALB/c mice 7 days p.i. with 2×10^3 Y. enterocolitica show significant reductions compared with untreated controls.

STAT1 = STAT1 phosphorylation (Tyr-701) by Western blot; type: cell-based, human; conditions: DIM 6 or 24 h, with or without 15 min IFNγ exposure
Source text: To acsertain the role of GAS element activation in transcriptional activation by DIM, we examined the effect of this indole on downstream events in the GAS signaling pathway. For this purpose, the effects of DIM on phosphorylation of the signal transduction and activator of transcription factor 1 (STAT1), and the binding of the activated STAT1 dimer to the cognate GAS responsive element were examined. Phosphorylation of STAT1 by Janus-activated kinase (JAK) is the first step in IFNγ signaling following binding to IFNGR1. For these studies, cells were pretreated with DIM for 6 or 24 h followed by a 15 min. exposure to IFNγ. STAT1 phosphorylation levels in cell lysates of DIM-treated cells were compared to controls that received IFNγ but had not been treated with DIM. Phosphorylation was measured by Western blot analysis using an antibody specific to STAT1 phosphorylated on Tyr-701 residue.

[2] = tested on: 4GAS-Luc reporter (four repeats of the consensus GAS element); test: 4GAS-Luc luciferase reporter in transiently transfected MCF-7 cells; type: cell-based, human; conditions: DIM 50 μM, IFNγ concentration dependent, maximum
Method: In a further experiment to examine whether the inducing effects of DIM are at the transcriptional level, the effect of DIM on activities of two luciferase reporter constructs, OAS-Luc (12) and 4GAS-Luc (13) was examined. OAS-Luc contains the promoter and 5′-flanking region (−972) of p69-OAS and GAS-Luc contains four repeats of the consensus GAS element. MCF-7 cells transiently transfected with these reporter constructs were treated with IFNγ, DIM, or a combination of both for 24 h. […] IFNγ induced transcriptional activity of this reporter in a concentration dependent manner to a maximum of about 1.8 fold, which is less than the response of the endogenous gene of about 5.0 fold. In marked contrast to the maximum effects of combined treatments of the inducers on endogenous gene expression (nearly 12-fold increase compared to vehicle treated cells), the reporter gene construct responded with less than a 3-fold increase over the controls.
Thus, treatment with DIM (50 μM) by itself again produced a 2 to 3-fold increase in activity of this reporter. IFNγ treatments, however, produced a robust concentration dependent increase in reporter activity to approximately 40-fold induction compared to vehicle treated controls. […]

IFNγ receptor (IFNGR1) = test: IFNGR1 mRNA expression in DIM-treated MCF-7 cells (cDNA microarray, Northern blot, quantitative RT-PCR); type: cell-based, human
Method: Immune response activating effects of the DIM analogs are examined with cell-based assays for cytokine and cytokine receptor expression. […] We also used a sensitive sandwich ELISA assay to examine levels of IFNγ in medium from confluent cultures of MCF-7 cells that were treated for up to 3 days. DIM derivatives confirmed to have immune response activating activity in our reporter and ELISA assays are subsequently screened in a whole animal cytokine production and Y. enterocolitica infection studies, as described below in Examples VIII and IX.
An initial cDNA gene expression microarray screen of human breast cancer MCF-7 cells treated with DIM, followed by confirmation of results using Northern blots and quantitative RT-PCR, established the transcriptional activation of IFNγ, IFNγ receptor (IFNGR1), oligoadenylate-synthase (OAS) family member protein 69 (p69-OAS), and interferon-inducible protein 56 (p56), a protein closely related to OAS. […] Maximum induction for IFNγ, IFNGR1, p69-OAS and p56 were 4.6, 3.8, 3.2 and 4.0 fold, respectively.

TNF-α = test: Serum TNF-α by ELISA in mice after DIM; type: in vivo; conditions: 30 μg/kg DIM orally
Method: as §1

c1ccc2c(Cc3c[nH]c4ccccc34)c[nH]c2c1 [DIM, 3,3′-Diindolylmethane]
Time of peak IL-6 induction (IL-6): 5 h
Band-shift of 32P-labeled GAS probe with nuclear extracts (GAS element): did not produce a shifted band
Time for which increased IL-12 levels were sustained (IL-12): at least 24 h
Effect on MHC-II expression (MHC-II): no effect
Time point of maximal circulating G-CSF (G-CSF): 3 h
Severity of yersiniae infection [1]: reduce the severity of yersiniae infection
STAT1 phosphorylation (Tyr-701) (STAT1): did not induce STAT1 phosphorylation
Induction of 4GAS-Luc reporter activity compared to vehicle treated controls [2]: 2 to 3 fold
Maximum induction of IFNGR1 mRNA (IFNγ receptor (IFNGR1); MCF-7 cells treated with DIM): 3.8 fold
Treatment time at which maximum IFNGR-1 induction was reached (IFNγ receptor (IFNGR1); MCF-7 cells treated with DIM): 48 h
IFNGR1 mRNA level at 48 h of treatment (IFNγ receptor (IFNGR1); MCF-7 cells, 48 h): remained elevated
Time point of maximal circulating TNF-α (TNF-α): 3 h
